Laboratory results from ChEMBL document CHEMBL1201862, “PubChem BioAssay data set” (2004).
Activity calls are given as the source filed them.

Legend:
[1] = HEp-2 cell cytotoxicity, dose response, cytotoxicity control for RSV inhibitor project, HTS (AID 2410); format: functional; settings: human respiratory syncytial virus
cells [2] = assay: cells
[3] = target: T1, Heat shock factor protein 1 (Mus musculus, UniProt P38532); assay: inhibition of MG132-induced HSE-luciferase signal, confirmation, cell-based, NIH3T3, luminescence, dose retest (AID 2382); format: functional;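 also: NIH3T3 fibroblasts with HSF1-driven luciferase reporter stressed by proteasome inhibitor MG132; luminescence from HSF1-driven luciferase expression after 8 hours of MG132 stress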
T1 sequence (P38532 whole entry): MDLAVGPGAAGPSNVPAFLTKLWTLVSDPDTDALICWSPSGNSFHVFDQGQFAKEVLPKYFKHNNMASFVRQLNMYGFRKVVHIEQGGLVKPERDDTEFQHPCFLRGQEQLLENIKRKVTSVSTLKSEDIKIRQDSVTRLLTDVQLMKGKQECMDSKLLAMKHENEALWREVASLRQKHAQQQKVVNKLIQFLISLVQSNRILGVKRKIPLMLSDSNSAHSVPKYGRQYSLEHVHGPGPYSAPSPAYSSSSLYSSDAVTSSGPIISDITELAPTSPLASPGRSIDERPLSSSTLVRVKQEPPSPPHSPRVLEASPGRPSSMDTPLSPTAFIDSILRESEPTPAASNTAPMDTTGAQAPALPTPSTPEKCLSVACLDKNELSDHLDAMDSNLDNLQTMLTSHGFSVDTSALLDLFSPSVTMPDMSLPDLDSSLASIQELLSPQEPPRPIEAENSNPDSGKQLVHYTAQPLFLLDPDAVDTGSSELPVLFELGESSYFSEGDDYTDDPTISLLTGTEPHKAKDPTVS

[4] = A Cell Based Secondary Assay To Explore Cytotoxicity of Compounds that Sensitize Mycobacterium Tuberculosis to Beta-Lactam Antibiotics.; format: functional
[5] = inhibitors of intracellular T. cruzi replication, confirmation, NIH3T3 host cells, beta-gal luminescence (AID 2044); format: functional, cell-based;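 also: intracellular parasites grown in NIH/3T3 mouse fibroblasts as host cells; luminescent beta-galactosidase reporter signal from transgenic T. cruzi replicating inside host cells; inhibitors lower the luminescence signal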
[6] = cytotoxicity toward NIH3T3 fibroblasts, dose response, counter-screen, cell-based, ATP luminescence, mouse fibroblasts (AID 2010); format: functional;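 also: cells exposed to compound for about 90 hours before reading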
[7] = target: FAD-linked sulfhydryl oxidase ALR (Homo sapiens, UniProt P55789); assay: inhibitors of human ALR sulfhydryl oxidase, dose response, biochemical, H2O2 detection, luminescence, cherry-pick (AID 493248)
HT-1080 = assay: cytotoxicity in HT1080 fibrosarcoma cells, cell-based, fluorescence readout (AID 620); format: functional; settings: Homo sapiens
[8] = target: T2, Luciferin 4-monooxygenase (Photinus pyralis, UniProt P08659); assay: Counter Screen for Luciferase-based Assay Positives. [Related pubchem assays: 620, 618, 411 ]
Coagulation factor XII = target: T3, Coagulation factor XII (Homo sapiens, UniProt P00748); assay: FXIIa inhibitor potency, concentration-response, biochemical (AID 716); format: functional
T3 sequence (P00748 whole entry): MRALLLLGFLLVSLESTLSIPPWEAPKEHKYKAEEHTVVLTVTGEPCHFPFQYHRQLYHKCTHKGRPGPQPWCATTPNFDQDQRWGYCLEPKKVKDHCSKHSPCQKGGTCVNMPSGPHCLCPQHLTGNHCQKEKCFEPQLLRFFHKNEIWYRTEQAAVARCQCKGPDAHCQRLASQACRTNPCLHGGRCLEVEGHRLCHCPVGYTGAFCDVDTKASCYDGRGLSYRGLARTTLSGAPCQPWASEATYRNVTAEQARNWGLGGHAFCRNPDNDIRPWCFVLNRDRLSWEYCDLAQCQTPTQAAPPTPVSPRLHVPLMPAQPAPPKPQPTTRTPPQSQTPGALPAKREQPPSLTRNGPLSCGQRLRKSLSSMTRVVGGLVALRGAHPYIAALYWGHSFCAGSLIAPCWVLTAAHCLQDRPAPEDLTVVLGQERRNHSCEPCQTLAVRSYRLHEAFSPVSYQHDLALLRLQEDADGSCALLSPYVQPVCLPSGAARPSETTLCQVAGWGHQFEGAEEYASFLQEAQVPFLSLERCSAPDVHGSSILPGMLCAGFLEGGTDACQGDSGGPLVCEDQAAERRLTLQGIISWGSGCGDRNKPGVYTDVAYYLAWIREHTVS

[9] = microbe, parasite or virus in culture; format: functional; settings: Mycobacterium tuberculosis
[10] = target: Eukaryotic translation initiation factor 4E (Mus musculus, UniProt P63073); assay: eIF4E–eIF4G protein interaction inhibitors, dose response, biochemical, TR-FRET (AID 855); format: functional;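 also: potency for disrupting eIF4E binding to eIF4GI seen as loss of FRET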
[11] = target: T4, Calpain-2 catalytic subunit (Sus scrofa, UniProt P43367); assay: pig calpain II inhibitor potency, dose response, biochemical, fluorogenic peptide substrate (AID 1420); format: functional
T4 sequence (P43367 whole entry): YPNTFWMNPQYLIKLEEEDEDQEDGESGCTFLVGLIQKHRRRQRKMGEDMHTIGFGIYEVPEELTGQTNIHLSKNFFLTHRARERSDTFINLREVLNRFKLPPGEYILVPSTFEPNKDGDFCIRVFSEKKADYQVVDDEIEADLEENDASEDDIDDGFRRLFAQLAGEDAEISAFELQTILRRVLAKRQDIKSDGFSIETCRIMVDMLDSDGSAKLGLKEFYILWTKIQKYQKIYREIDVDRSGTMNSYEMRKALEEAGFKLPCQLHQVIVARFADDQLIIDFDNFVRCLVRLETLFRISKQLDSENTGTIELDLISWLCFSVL

[12] = target: G-protein coupled receptor 55 (Homo sapiens, UniProt Q9Y2T6); assay: GPR55 antagonists blocking LPI-driven arrestin recruitment, primary screen, imaging, U2OS, beta-arrestin-GFP, LPI agonist (AID 2013); format: functional;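 also: antagonist potency measured as reduced agonist-driven arrestin aggregation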
[13] = target: T5, Microphthalmia-associated transcription factor (Homo sapiens, UniProt O75030); assay: TRPM1 promoter luciferase signal decrease, dose response, MITF inhibitor project, cell-based, SK-MEL-5, cherry-picked, set 3 (AID 493073); format: functional
T5 sequence (O75030 whole entry): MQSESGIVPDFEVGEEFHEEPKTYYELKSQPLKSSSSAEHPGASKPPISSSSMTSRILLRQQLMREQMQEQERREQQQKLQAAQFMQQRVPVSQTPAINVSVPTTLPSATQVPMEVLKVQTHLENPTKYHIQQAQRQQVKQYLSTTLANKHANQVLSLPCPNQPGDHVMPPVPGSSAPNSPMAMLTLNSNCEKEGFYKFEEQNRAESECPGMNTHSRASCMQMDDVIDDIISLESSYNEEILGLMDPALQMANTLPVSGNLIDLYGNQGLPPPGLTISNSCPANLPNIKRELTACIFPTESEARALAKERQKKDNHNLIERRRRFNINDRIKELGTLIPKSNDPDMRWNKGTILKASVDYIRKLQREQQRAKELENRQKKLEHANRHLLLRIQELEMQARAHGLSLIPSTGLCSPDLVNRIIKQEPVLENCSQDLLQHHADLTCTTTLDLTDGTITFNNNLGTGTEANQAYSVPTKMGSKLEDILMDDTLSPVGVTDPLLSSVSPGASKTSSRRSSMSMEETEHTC

[14] = target: T2, Luciferin 4-monooxygenase; assay: firefly luciferase enzyme inhibitors, dose response, biochemical, luminescence (AID 1891)
[15] = Shn3 3'UTR reporter inhibitors, dose response, cell-based, Clone20 osteoblasts, firefly luciferase, cherry-picked (AID 624132); format: functional;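 also: firefly luciferase luminescence from reporter carrying the Shn3 3'UTR in osteoblasts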
[16] = Luminescence Cell-Based Dose Confirmation HTS to Identify Inhibitors of Platelet Dense Granule Release. [Related pubchem assays: 1663 (Primary HTS), 1678 (Summary of Project)]; format: functional
[17] = control 3'UTR Renilla luciferase suppression, dose response, counter-screen for Shn3 inhibitor project, cell-based, Clone20-Shn3RL, cherry-picked (AID 624133); format: functional
[18] = A549 cell cytotoxicity, dose response, cytotoxicity control, plate reader, cherry-pick, antagonist series (AID 743412); format: functional, cell-based
HeLa = assay: HeLa cell cytotoxicity, dose response, cytotoxicity control, 24 h, cherry-picked samples (AID 504726); format: functional, cell-based; settings: Homo sapiens;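 also: potency for cytotoxicity as loss of luminescence signal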
[19] = HEK293 cell cytotoxicity, dose response, cytotoxicity control, plate reader, cherry-picked samples (AID 743446); format: functional, cell-based
[20] = HepG2 cell cytotoxicity, dose response, cytotoxicity control for Shn3 inhibitor project, CellTiter-Glo, cherry-picked (AID 624134); format: functional, cell-based
A-375 = assay: A375 melanoma cell viability reduction, dose response, counter-screen for MITF modulator project, cherry-pick samples, set 2 (AID 540335); format: functional, cell-based; settings: Homo sapiens
[21] = MC4R antagonists, dose response, counter-screen for LGR2 antagonist project, cell-based, plate reader, cherry pick (AID 743444); format: functional;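 also: transfected HEK 293 cells stimulated with alpha-MSH peptide; potency of inhibitors of the alpha-MSH evoked signal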
[22] = LGR2 antagonists, dose response, cell-based, HEK293, CRE-luciferase reporter, cherry pick, set 2 (AID 743343); format: functional;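 also: transfected cells were stimulated with diluted bursicon conditioned medium after compound addition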
Protein skinhead-1 = target: T6, Protein skinhead-1 (Caenorhabditis elegans, UniProt P34707); format: functional
T6 sequence (P34707 whole entry): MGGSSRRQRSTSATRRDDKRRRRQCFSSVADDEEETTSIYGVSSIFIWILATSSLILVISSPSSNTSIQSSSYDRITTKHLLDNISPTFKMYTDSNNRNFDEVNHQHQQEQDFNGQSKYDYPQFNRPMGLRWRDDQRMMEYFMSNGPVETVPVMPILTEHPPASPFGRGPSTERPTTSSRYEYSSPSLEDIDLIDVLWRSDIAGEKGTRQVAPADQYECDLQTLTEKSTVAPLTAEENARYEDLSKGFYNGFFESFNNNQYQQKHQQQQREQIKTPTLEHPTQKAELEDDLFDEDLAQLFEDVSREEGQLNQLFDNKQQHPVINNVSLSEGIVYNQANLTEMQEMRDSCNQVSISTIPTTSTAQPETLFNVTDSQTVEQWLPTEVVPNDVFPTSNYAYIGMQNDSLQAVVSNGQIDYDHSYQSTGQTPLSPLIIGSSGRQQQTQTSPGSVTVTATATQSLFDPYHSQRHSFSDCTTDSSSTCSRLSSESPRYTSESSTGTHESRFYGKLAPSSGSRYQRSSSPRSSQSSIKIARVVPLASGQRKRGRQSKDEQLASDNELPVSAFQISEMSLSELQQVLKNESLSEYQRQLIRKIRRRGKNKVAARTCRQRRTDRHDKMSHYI

cells [23] = format: functional
[24] = THP-1 cell cytotoxicity, dose response, cytotoxicity control for non-replicating M. tuberculosis project (AID 489025); format: functional
[25] = Vero E6 cell cytotoxicity, dose response, cytotoxicity control for non-replicating M. tuberculosis project, secondary assay (AID 492998); format: functional, VeroE6; settings: Vero C1008

T2 sequence (P08659 whole entry): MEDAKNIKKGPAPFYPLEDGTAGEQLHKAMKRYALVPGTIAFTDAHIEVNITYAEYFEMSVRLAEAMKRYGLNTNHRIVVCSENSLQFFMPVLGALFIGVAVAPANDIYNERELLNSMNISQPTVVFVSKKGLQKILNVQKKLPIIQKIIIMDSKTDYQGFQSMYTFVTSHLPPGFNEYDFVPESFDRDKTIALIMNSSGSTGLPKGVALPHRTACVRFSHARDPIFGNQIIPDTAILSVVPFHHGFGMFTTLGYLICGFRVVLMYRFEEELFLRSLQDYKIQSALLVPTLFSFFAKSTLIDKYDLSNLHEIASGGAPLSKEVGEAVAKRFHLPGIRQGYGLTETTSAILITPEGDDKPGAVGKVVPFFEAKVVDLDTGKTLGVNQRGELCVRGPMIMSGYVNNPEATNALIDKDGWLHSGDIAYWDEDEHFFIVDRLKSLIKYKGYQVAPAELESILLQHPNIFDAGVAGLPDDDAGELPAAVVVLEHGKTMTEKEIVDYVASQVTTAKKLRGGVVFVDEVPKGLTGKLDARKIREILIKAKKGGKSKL
Eukaryotic translation initiation factor 4E, sequence (P63073 whole entry): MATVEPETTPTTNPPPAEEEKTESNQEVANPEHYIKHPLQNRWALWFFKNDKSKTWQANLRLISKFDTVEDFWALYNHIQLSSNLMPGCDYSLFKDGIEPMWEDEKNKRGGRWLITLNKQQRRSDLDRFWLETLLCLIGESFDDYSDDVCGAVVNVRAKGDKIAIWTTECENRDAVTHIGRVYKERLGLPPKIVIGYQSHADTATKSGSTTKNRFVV
G-protein coupled receptor 55, sequence (Q9Y2T6 whole entry): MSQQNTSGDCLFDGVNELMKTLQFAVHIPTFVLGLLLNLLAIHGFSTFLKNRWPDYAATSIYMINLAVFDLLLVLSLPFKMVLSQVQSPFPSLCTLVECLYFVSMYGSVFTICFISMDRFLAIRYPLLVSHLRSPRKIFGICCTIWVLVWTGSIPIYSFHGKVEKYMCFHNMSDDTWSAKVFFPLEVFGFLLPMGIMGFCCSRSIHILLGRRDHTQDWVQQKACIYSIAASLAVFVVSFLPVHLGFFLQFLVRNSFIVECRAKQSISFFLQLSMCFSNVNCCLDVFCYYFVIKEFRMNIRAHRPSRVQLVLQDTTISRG
FAD-linked sulfhydryl oxidase ALR, sequence (P55789 whole entry): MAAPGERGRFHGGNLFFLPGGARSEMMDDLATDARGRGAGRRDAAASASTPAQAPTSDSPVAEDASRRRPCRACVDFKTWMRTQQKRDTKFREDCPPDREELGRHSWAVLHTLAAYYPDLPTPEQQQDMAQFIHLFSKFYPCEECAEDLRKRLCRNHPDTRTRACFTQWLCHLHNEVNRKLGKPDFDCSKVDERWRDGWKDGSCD

SMILES: CC(Nc1ccccc1N1CCCCC1)C(=O)N1CCc2ccccc21 (stereo not given)
- CC50 [1]: > 50 µM (active)
- IC50 (cells [2]): 15.4 µM (active)

SMILES: O=C(C1=C[C@H](c2ccc(Br)cc2)C[C@H](OCCCCO)O1)N1CCN(Cc2ccc3c(c2)OCO3)CC1
- EC50 [3]: > 195 µM (not active)
- CC50 [4]: > 40 µM (active)
- EC50 [5]: 0.346 µM (active)
- EC50 [6]: > 60 µM (not active)

SMILES: Clc1c(CSc2nc3ccccc3o2)nc2ccccn12
- AC50 [7]: 7.37 µM (active)
- EC50 (HT-1080): > 50 µM (not active)
- EC50 [8]: 9.33 µM (active)

SMILES: CC(=O)c1c(C)nn(CC(O)COc2ccc3c(c2)CCC3)c1C (stereo not given)
- IC50 (Coagulation factor XII): > 50 µM (inactive)

SMILES: CCOC(=O)N1CCN(C(=O)C2CC(c3ccc(F)cc3)=NO2)CC1 (stereo not given)
- IC50 (Coagulation factor XII): > 50 µM (inactive)

SMILES: CCCCOCCCn1c(-c2ccco2)nc2nc3ccccc3nc21
- CC50 [9]: > 40 µM (active)
- IC50 [10]: > 64 µM (inactive)

SMILES: c1ccc(CCNc2ncnc3scc(C4COc5ccccc5O4)c23)cc1 (stereo not given)
- IC50 [11]: 10.4 µM (not active)
- IC50 [12]: 3.59 µM (active)

SMILES: O=C1CC(N2CCN(Cc3ccc4c(c3)OCO4)CC2)C(=O)N1c1cccc(Cl)c1 (stereo not given)
- IC50 [10]: > 64 µM (inactive)

SMILES: COc1cc(SC)ccc1C(=O)Nc1nc(C)cs1
- AC50 [13]: 4.81 µM (active)
- EC50 [3]: 0.845 µM (active)
- EC50 [14]: 0.511 µM (active)
- AC50 [15]: 7.09 µM (active)
- EC50 [16]: 7.22 µM (active)
- AC50 [17]: 35.2 µM (active)
- AC50 [18]: 43.9 µM (active)
- AC50 (HeLa): 42.3 µM (active)
- AC50 [19]: 24.9 µM (active)
- AC50 [20]: > 70 µM (inactive)
- AC50 (A-375): 47.4 µM (active)
- AC50 [21]: 0.491 µM (active)
- AC50 [22]: 0.49 µM (active)

SMILES: COc1cc(/C=C/c2cc(C(=O)O)c3ccccc3n2)ccc1OC(F)F
- CC50 [1]: 35.7 µM (active)
- IC50 (cells [2]): 28.6 µM (active)

SMILES: Cc1ccc(-c2nnc(O)c(O)c2N=Nc2ccccc2)cc1
- CC50 [4]: > 40 µM (active)

SMILES: Cc1nc2ccc(S(=O)(=O)NC(C(=O)Nc3nc4ccc(Cl)cc4s3)C(C)C)cc2s1 (stereo not given)
- IC50 [12]: 0.894 µM (active)

SMILES: c1ccc(-c2nc3cc4ccccc4cc3[nH]2)nc1
- IC50 (Protein skinhead-1): 9.19 µM (active)
- EC50 (HT-1080): 14.6 µM (active)
- EC50 [8]: 6.86 µM (active)

SMILES: Cc1c(C(=O)N2CCN(S(=O)(=O)c3ccccc3F)CC2)oc2c(Cl)cccc12
- CC50 [1]: 31.6 µM (active)
- IC50 (cells [2]): > 50 µM (active)
- IC50 (Protein skinhead-1): > 100 µM (inactive)

SMILES: NC1=NC(=O)/C(=C\c2ccsc2)S1
- IC50 [10]: 50 µM (inactive)

SMILES: Cc1noc(C)c1COC(=O)Cc1ccc(Cl)cc1
- IC50 (Coagulation factor XII): > 50 µM (inactive)

SMILES: COc1ccccc1CNC(=O)c1ccc(SC)cc1OC
- CC50 [1]: > 50 µM (active)
- CC50 [4]: > 40 µM (active)

SMILES: Cc1cc(NC(=O)CCC(=O)N(CCC(C)C)C(C(=O)NC2CCCC2)c2cccnc2)no1 (stereo not given)
- AC50 (HeLa): > 350 µM (inactive)

SMILES: O=C(N/N=C\c1ccc([N+](=O)[O-])o1)c1cncc(Br)c1
- IC50 (cells [23]): 3.94 µM (active)
- AC50 (HeLa): > 350 µM (inactive)
- CC50 [24]: 27.4 µM (active)
- EC50 [5]: 0.389 µM (active)
- CC50 [25]: > 20 µM (active)
- EC50 [6]: > 60 µM (not active)
